Test results reported in ChEMBL document CHEMBL5325403, “Benzenesulfonyl thiazoloimines as unique multitargeting antibacterial agents towards Enterococcus faecalis” (Eur J Med Chem, 2023).
Converted amounts (≈) assume the structure as drawn.

Test system: Staphylococcus aureus
Assay: Antibacterial activity against methicillin-resistant Staphylococcus aureus N315 assessed as inhibition of bacterial growth by continuous dilution method
Assay type: functional

Row | SMILES | MIC [µg/mL]
1 | C#CCO/N=C(/CS(=O)(=O)c1ccc(N)cc1)c1nccs1 | 64 (≈ 191 µM)
2 | CC(=O)Nc1ccc(S(=O)(=O)/C(=C\c2ccc(C)cc2)C(=O)c2nccs2)cc1 | 128 (≈ 300 µM)
3 | Nc1ccc(S(=O)(=O)C/C(=N/O)c2nccs2)cc1 | 128 (≈ 430 µM)
4 | CC(=O)Nc1ccc(S(=O)(=O)/C(=C\c2ccccc2Cl)C(=O)c2nccs2)cc1 | 256 (≈ 573 µM)
5 | CC(=O)Nc1ccc(S(=O)(=O)C/C(=N/NC(=O)Cc2ccccc2)c2nccs2)cc1 | 64 (≈ 140 µM)
6 | CC(=O)Nc1ccc(S(=O)(=O)C/C(=N/Nc2ccccc2)c2nccs2)cc1 | 128 (≈ 309 µM)
7 | CCCCO/N=C(/CS(=O)(=O)c1ccc(N)cc1)c1nccs1 | 64 (≈ 181 µM)

Test system: Acinetobacter baumannii
Assay: Antibacterial activity against Acinetobacter baumannii assessed as inhibition of bacterial growth by continuous dilution method
Assay type: functional

Row | SMILES | MIC [µg/mL]
8 | C#CCO/N=C(/CS(=O)(=O)c1ccc(N)cc1)c1nccs1 | 64 (≈ 191 µM)
9 | CC(=O)Nc1ccc(S(=O)(=O)/C(=C\c2ccc(C)cc2)C(=O)c2nccs2)cc1 | 256 (≈ 600 µM)
10 | Nc1ccc(S(=O)(=O)C/C(=N/O)c2nccs2)cc1 | 256 (≈ 861 µM)
11 | CC(=O)Nc1ccc(S(=O)(=O)/C(=C\c2ccccc2Cl)C(=O)c2nccs2)cc1 | 128 (≈ 286 µM)
12 | CC(=O)Nc1ccc(S(=O)(=O)C/C(=N/NC(=O)Cc2ccccc2)c2nccs2)cc1 | 256 (≈ 561 µM)
13 | CC(=O)Nc1ccc(S(=O)(=O)C/C(=N/Nc2ccccc2)c2nccs2)cc1 | 64 (≈ 154 µM)
14 | CCCCO/N=C(/CS(=O)(=O)c1ccc(N)cc1)c1nccs1 | 64 (≈ 181 µM)

Test system: Staphylococcus aureus
Assay: Antibacterial activity against Staphylococcus aureus ATCC 29213 assessed as inhibition of bacterial growth by continuous dilution method
Assay type: functional

Row | SMILES | MIC [µg/mL]
15 | C#CCO/N=C(/CS(=O)(=O)c1ccc(N)cc1)c1nccs1 | 64 (≈ 191 µM)
16 | CC(=O)Nc1ccc(S(=O)(=O)/C(=C\c2ccc(C)cc2)C(=O)c2nccs2)cc1 | 256 (≈ 600 µM)
17 | Nc1ccc(S(=O)(=O)C/C(=N/O)c2nccs2)cc1 | 64 (≈ 215 µM)
18 | CC(=O)Nc1ccc(S(=O)(=O)/C(=C\c2ccccc2Cl)C(=O)c2nccs2)cc1 | 128 (≈ 286 µM)
19 | CC(=O)Nc1ccc(S(=O)(=O)C/C(=N/NC(=O)Cc2ccccc2)c2nccs2)cc1 | 256 (≈ 561 µM)
20 | CC(=O)Nc1ccc(S(=O)(=O)C/C(=N/Nc2ccccc2)c2nccs2)cc1 | 256 (≈ 618 µM)
21 | CCCCO/N=C(/CS(=O)(=O)c1ccc(N)cc1)c1nccs1 | 64 (≈ 181 µM)

Test system: Escherichia coli
Assay: Antibacterial activity against Escherichia coli assessed as inhibition of bacterial growth by continuous dilution method
Assay type: functional

Row | SMILES | MIC [µg/mL]
22 | C#CCO/N=C(/CS(=O)(=O)c1ccc(N)cc1)c1nccs1 | 32 (≈ 95.4 µM)
23 | CC(=O)Nc1ccc(S(=O)(=O)/C(=C\c2ccc(C)cc2)C(=O)c2nccs2)cc1 | 256 (≈ 600 µM)
24 | Nc1ccc(S(=O)(=O)C/C(=N/O)c2nccs2)cc1 | 32 (≈ 108 µM)
25 | CC(=O)Nc1ccc(S(=O)(=O)/C(=C\c2ccccc2Cl)C(=O)c2nccs2)cc1 | 16 (≈ 35.8 µM)
26 | CC(=O)Nc1ccc(S(=O)(=O)C/C(=N/NC(=O)Cc2ccccc2)c2nccs2)cc1 | 256 (≈ 561 µM)
27 | CC(=O)Nc1ccc(S(=O)(=O)C/C(=N/Nc2ccccc2)c2nccs2)cc1 | 256 (≈ 618 µM)
28 | CCCCO/N=C(/CS(=O)(=O)c1ccc(N)cc1)c1nccs1 | 32 (≈ 90.5 µM)

Test system: Pseudomonas aeruginosa
Assay: Antibacterial activity against Pseudomonas aeruginosa assessed as inhibition of bacterial growth by continuous dilution method
Assay type: functional

Row | SMILES | MIC [µg/mL]
29 | C#CCO/N=C(/CS(=O)(=O)c1ccc(N)cc1)c1nccs1 | 64 (≈ 191 µM)
30 | CC(=O)Nc1ccc(S(=O)(=O)/C(=C\c2ccc(C)cc2)C(=O)c2nccs2)cc1 | 128 (≈ 300 µM)
31 | Nc1ccc(S(=O)(=O)C/C(=N/O)c2nccs2)cc1 | 128 (≈ 430 µM)
32 | CC(=O)Nc1ccc(S(=O)(=O)/C(=C\c2ccccc2Cl)C(=O)c2nccs2)cc1 | 256 (≈ 573 µM)
33 | CC(=O)Nc1ccc(S(=O)(=O)C/C(=N/NC(=O)Cc2ccccc2)c2nccs2)cc1 | 256 (≈ 561 µM)
34 | CC(=O)Nc1ccc(S(=O)(=O)C/C(=N/Nc2ccccc2)c2nccs2)cc1 | 256 (≈ 618 µM)
35 | CCCCO/N=C(/CS(=O)(=O)c1ccc(N)cc1)c1nccs1 | 32 (≈ 90.5 µM)

Test system: Pseudomonas aeruginosa
Assay: Antibacterial activity against Pseudomonas aeruginosa ATCC 27853 assessed as inhibition of bacterial growth by continuous dilution method
Assay type: functional

Row | SMILES | MIC [µg/mL]
36 | C#CCO/N=C(/CS(=O)(=O)c1ccc(N)cc1)c1nccs1 | 32 (≈ 95.4 µM)
37 | CC(=O)Nc1ccc(S(=O)(=O)/C(=C\c2ccc(C)cc2)C(=O)c2nccs2)cc1 | 128 (≈ 300 µM)
38 | Nc1ccc(S(=O)(=O)C/C(=N/O)c2nccs2)cc1 | 64 (≈ 215 µM)
39 | CC(=O)Nc1ccc(S(=O)(=O)/C(=C\c2ccccc2Cl)C(=O)c2nccs2)cc1 | 32 (≈ 71.6 µM)
40 | CC(=O)Nc1ccc(S(=O)(=O)C/C(=N/NC(=O)Cc2ccccc2)c2nccs2)cc1 | 16 (≈ 35 µM)
41 | CC(=O)Nc1ccc(S(=O)(=O)C/C(=N/Nc2ccccc2)c2nccs2)cc1 | 256 (≈ 618 µM)
42 | CCCCO/N=C(/CS(=O)(=O)c1ccc(N)cc1)c1nccs1 | 32 (≈ 90.5 µM)

Test system: Klebsiella pneumoniae
Assay: Antibacterial activity against Klebsiella pneumoniae assessed as inhibition of bacterial growth by continuous dilution method
Assay type: functional

Row | SMILES | MIC [µg/mL]
43 | C#CCO/N=C(/CS(=O)(=O)c1ccc(N)cc1)c1nccs1 | 32 (≈ 95.4 µM)
44 | CC(=O)Nc1ccc(S(=O)(=O)/C(=C\c2ccc(C)cc2)C(=O)c2nccs2)cc1 | 256 (≈ 600 µM)
45 | Nc1ccc(S(=O)(=O)C/C(=N/O)c2nccs2)cc1 | 64 (≈ 215 µM)
46 | CC(=O)Nc1ccc(S(=O)(=O)/C(=C\c2ccccc2Cl)C(=O)c2nccs2)cc1 | 16 (≈ 35.8 µM)
47 | CC(=O)Nc1ccc(S(=O)(=O)C/C(=N/NC(=O)Cc2ccccc2)c2nccs2)cc1 | 128 (≈ 280 µM)
48 | CC(=O)Nc1ccc(S(=O)(=O)C/C(=N/Nc2ccccc2)c2nccs2)cc1 | 256 (≈ 618 µM)
49 | CCCCO/N=C(/CS(=O)(=O)c1ccc(N)cc1)c1nccs1 | 16 (≈ 45.3 µM)

Test system: Enterococcus faecalis
Assay: Antibacterial activity against Enterococcus faecalis assessed as inhibition of bacterial growth by continuous dilution method
Assay type: functional

Row | SMILES | MIC [µg/mL]
50 | C#CCO/N=C(/CS(=O)(=O)c1ccc(N)cc1)c1nccs1 | 64 (≈ 191 µM)
51 | CC(=O)Nc1ccc(S(=O)(=O)/C(=C\c2ccc(C)cc2)C(=O)c2nccs2)cc1 | 128 (≈ 300 µM)
52 | Nc1ccc(S(=O)(=O)C/C(=N/O)c2nccs2)cc1 | 128 (≈ 430 µM)
53 | CC(=O)Nc1ccc(S(=O)(=O)/C(=C\c2ccccc2Cl)C(=O)c2nccs2)cc1 | 16 (≈ 35.8 µM)
54 | CC(=O)Nc1ccc(S(=O)(=O)C/C(=N/NC(=O)Cc2ccccc2)c2nccs2)cc1 | 64 (≈ 140 µM)
55 | CC(=O)Nc1ccc(S(=O)(=O)C/C(=N/Nc2ccccc2)c2nccs2)cc1 | 128 (≈ 309 µM)
56 | CCCCO/N=C(/CS(=O)(=O)c1ccc(N)cc1)c1nccs1 | 16 (≈ 45.3 µM)

Test system: Staphylococcus aureus
Assay: Antibacterial activity against Staphylococcus aureus assessed as inhibition of bacterial growth by continuous dilution method
Assay type: functional

Row | SMILES | MIC [µg/mL]
57 | C#CCO/N=C(/CS(=O)(=O)c1ccc(N)cc1)c1nccs1 | 64 (≈ 191 µM)
58 | CC(=O)Nc1ccc(S(=O)(=O)/C(=C\c2ccc(C)cc2)C(=O)c2nccs2)cc1 | 256 (≈ 600 µM)
59 | Nc1ccc(S(=O)(=O)C/C(=N/O)c2nccs2)cc1 | 128 (≈ 430 µM)
60 | CC(=O)Nc1ccc(S(=O)(=O)/C(=C\c2ccccc2Cl)C(=O)c2nccs2)cc1 | 32 (≈ 71.6 µM)
61 | CC(=O)Nc1ccc(S(=O)(=O)C/C(=N/NC(=O)Cc2ccccc2)c2nccs2)cc1 | 256 (≈ 561 µM)
62 | CC(=O)Nc1ccc(S(=O)(=O)C/C(=N/Nc2ccccc2)c2nccs2)cc1 | 256 (≈ 618 µM)
63 | CCCCO/N=C(/CS(=O)(=O)c1ccc(N)cc1)c1nccs1 | 32 (≈ 90.5 µM)

Test system: Staphylococcus aureus
Assay: Antibacterial activity against Staphylococcus aureus ATCC 25923 assessed as inhibition of bacterial growth by continuous dilution method
Assay type: functional

Row | SMILES | MIC [µg/mL]
64 | C#CCO/N=C(/CS(=O)(=O)c1ccc(N)cc1)c1nccs1 | 32 (≈ 95.4 µM)
65 | CC(=O)Nc1ccc(S(=O)(=O)/C(=C\c2ccc(C)cc2)C(=O)c2nccs2)cc1 | 256 (≈ 600 µM)
66 | Nc1ccc(S(=O)(=O)C/C(=N/O)c2nccs2)cc1 | 64 (≈ 215 µM)
67 | CC(=O)Nc1ccc(S(=O)(=O)/C(=C\c2ccccc2Cl)C(=O)c2nccs2)cc1 | 64 (≈ 143 µM)
68 | CC(=O)Nc1ccc(S(=O)(=O)C/C(=N/NC(=O)Cc2ccccc2)c2nccs2)cc1 | 64 (≈ 140 µM)
69 | CC(=O)Nc1ccc(S(=O)(=O)C/C(=N/Nc2ccccc2)c2nccs2)cc1 | 256 (≈ 618 µM)
70 | CCCCO/N=C(/CS(=O)(=O)c1ccc(N)cc1)c1nccs1 | 32 (≈ 90.5 µM)

Test system: Escherichia coli
Assay: Antibacterial activity against Escherichia coli ATCC 25922 assessed as inhibition of bacterial growth by continuous dilution method
Assay type: functional

Row | SMILES | MIC [µg/mL]
71 | C#CCO/N=C(/CS(=O)(=O)c1ccc(N)cc1)c1nccs1 | 32 (≈ 95.4 µM)
72 | CC(=O)Nc1ccc(S(=O)(=O)/C(=C\c2ccc(C)cc2)C(=O)c2nccs2)cc1 | 256 (≈ 600 µM)
73 | Nc1ccc(S(=O)(=O)C/C(=N/O)c2nccs2)cc1 | 16 (≈ 53.8 µM)
74 | CC(=O)Nc1ccc(S(=O)(=O)/C(=C\c2ccccc2Cl)C(=O)c2nccs2)cc1 | 64 (≈ 143 µM)
75 | CC(=O)Nc1ccc(S(=O)(=O)C/C(=N/NC(=O)Cc2ccccc2)c2nccs2)cc1 | 32 (≈ 70.1 µM)
76 | CC(=O)Nc1ccc(S(=O)(=O)C/C(=N/Nc2ccccc2)c2nccs2)cc1 | 256 (≈ 618 µM)
77 | CCCCO/N=C(/CS(=O)(=O)c1ccc(N)cc1)c1nccs1 | 32 (≈ 90.5 µM)
